# Assay results taken from patent US9834550B2, “Pyridopyrimidinone compounds for modulating the catalytic activity of histone lysine demethylases (KDMs)” (Dong-A Socio Holdings Co., Ltd., priority 2014, dated 2017).
# Molecular target: T1, Recombinant human JARID1B/KDM5B (Homo sapiens, UniProt Q9UGL1)
# T1 construct: purchased Active Motif 31432; host or cells: Sf9 insect cells
# Assay: LANCE Ultra TR-FRET demethylase assay with FLAG-tagged JARID1B
# Assay type: biochemical
# Details: 100 nM compound; 500 nM biotinylated H3K4me3 peptide substrate
# Procedure, shortened: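 Sf9-expressed N-FLAG full-length JARID1B (10–30 nM) preincubated 5 min with compound at 20, 1 or 0.1 uM (1% DMSO), then 500 nM biotin-H3K4me3 peptide, 500 uM 2-OG, 25 uM Fe(II), 2 mM ascorbate added; 30 min at room temperature in Hepes pH 7.5. H3K4me2/1 product read by TR-FRET 665/590 ratio.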
# T1 sequence (Q9UGL1 whole entry): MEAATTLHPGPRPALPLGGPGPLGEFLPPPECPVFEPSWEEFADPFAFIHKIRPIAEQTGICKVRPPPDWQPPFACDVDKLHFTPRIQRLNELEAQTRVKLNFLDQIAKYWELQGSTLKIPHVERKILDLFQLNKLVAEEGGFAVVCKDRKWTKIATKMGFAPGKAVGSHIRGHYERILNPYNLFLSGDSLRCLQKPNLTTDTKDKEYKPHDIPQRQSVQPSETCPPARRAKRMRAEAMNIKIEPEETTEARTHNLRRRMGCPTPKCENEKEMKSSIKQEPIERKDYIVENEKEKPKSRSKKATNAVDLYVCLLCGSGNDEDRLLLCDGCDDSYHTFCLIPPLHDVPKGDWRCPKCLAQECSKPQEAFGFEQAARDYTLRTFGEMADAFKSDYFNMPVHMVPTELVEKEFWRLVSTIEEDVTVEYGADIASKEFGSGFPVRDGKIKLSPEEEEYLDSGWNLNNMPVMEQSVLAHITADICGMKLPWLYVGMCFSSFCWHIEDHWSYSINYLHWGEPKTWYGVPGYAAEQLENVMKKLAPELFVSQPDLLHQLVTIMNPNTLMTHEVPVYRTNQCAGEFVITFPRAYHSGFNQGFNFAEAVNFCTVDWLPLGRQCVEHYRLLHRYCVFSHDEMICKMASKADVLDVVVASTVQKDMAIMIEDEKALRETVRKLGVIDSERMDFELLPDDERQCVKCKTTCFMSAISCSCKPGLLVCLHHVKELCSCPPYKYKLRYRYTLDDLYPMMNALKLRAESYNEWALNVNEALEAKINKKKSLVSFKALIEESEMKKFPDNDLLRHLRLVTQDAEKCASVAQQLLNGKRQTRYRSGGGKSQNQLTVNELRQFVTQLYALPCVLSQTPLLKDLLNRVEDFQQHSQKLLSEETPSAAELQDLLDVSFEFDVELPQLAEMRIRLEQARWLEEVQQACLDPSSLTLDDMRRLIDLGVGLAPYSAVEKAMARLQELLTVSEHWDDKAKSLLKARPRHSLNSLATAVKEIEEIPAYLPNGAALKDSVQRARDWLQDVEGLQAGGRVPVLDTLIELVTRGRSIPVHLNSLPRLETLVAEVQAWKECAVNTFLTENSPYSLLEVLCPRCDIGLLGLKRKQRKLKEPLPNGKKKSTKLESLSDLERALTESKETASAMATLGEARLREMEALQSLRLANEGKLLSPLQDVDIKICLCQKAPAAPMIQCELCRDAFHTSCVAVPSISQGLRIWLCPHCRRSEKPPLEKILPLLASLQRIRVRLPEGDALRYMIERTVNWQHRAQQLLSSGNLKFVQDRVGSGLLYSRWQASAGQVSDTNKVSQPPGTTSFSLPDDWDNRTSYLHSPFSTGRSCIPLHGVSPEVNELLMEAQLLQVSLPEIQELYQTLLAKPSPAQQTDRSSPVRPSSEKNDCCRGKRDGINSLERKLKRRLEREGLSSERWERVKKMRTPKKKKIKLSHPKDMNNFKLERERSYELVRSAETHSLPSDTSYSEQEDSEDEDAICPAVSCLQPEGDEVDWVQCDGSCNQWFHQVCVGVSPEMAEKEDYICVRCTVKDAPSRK
row,SMILES,inhibition at 0.1 µM
1,"O=c1[nH]c(COc2ccc(Cc3ccccc3)cc2)nc2c(CNCCCCN3CCCC3)nccc12 [Example 143, 2-((4-benzylphenoxy)methyl)-8-(((4-(pyrrolidin-1-yl)butyl)amino)methyl)pyrido[3,4-d]pyrimidin-4(3H)-one]",20 to 50%
2,"CN1CCC(CNC(=O)CNCc2nccc3c(=O)[nH]c(COc4ccc(F)c(Cl)c4)nc23)C1 (stereo not drawn) [Example 227, 2-(((2-((3-chloro-4-fluorophenoxy)methyl)-4-oxo-3,4-dihydropyrido[3,4-d]pyrimidin-8-yl)methyl)amino)-N-((1-methylpyrrolidin-3-yl)methyl)acetamide]",20 to 50%
3,"O=C(CNCc1nccc2c(=O)[nH]c(COc3ccc(F)c(Cl)c3)nc12)N1CCOCC1 [Example 225, 2-((3-chloro-4-fluorophenoxy)methyl)-8-(((2-morpholino-2-oxoethyl)amino)methyl)pyrido[3,4-d]pyrimidin-4(3H)-one]",20 to 50%
4,"O=C(CNCc1nccc2c(=O)[nH]c(COc3ccc(F)c(Cl)c3)nc12)N[C@H]1CC[C@H](N2CCCC2)O1 (relative stereo) [Example 233, 2-(((2-((3-chloro-4-fluorophenoxy)methyl)-4-oxo-3,4-dihydropyrido[3,4-d]pyrimidin-8-yl)methyl)amino)-N-(trans-5-(pyrrolidin-1-yl)tetrahydrofuran-2-yl)acetamide]",> 50%
5,"O=c1[nH]c(COc2ccc(F)c(Cl)c2)nc2c(CNCc3cccnc3)nccc12 [Example 172, 2-((3-chloro-4-fluorophenoxy)methyl)-8-(((pyridin-3-ylmethyl)amino)methyl)pyrido[3,4-d]pyrimidin-4(3H)-one]",> 50%
6,"O=c1[nH]c(COc2ccc(F)c(Cl)c2)nc2c(CNCc3ccncc3)nccc12 [Example 173, 2-((3-chloro-4-fluorophenoxy)methyl)-8-(((pyridin-4-ylmethyl)amino)methyl)pyrido[3,4-d]pyrimidin-4(3H)-one]",20 to 50%
7,"CN1CCC(CNCc2nccc3c(=O)[nH]c(COc4ccc(Cc5ccccc5)cc4)nc23)CC1 [Example 152, 2-((4-benzylphenoxy)methyl)-8-((((1-methylpiperidin-4-yl)methyl)amino)methyl)pyrido[3,4-d]pyrimidin-4(3H)-one]",> 50%
8,"CN(C)C1CCN(C(=O)CNCc2nccc3c(=O)[nH]c(COc4ccc(F)c(Cl)c4)nc23)C1 (stereo not drawn) [Example 237, 2-((3-chloro-4-fluorophenoxy)methyl)-8-(((2-(3-(dimethylamino)pyrrolidin-1-yl)-2-oxoethyl)amino)methyl)pyrido[3,4-d]pyrimidin-4(3H)-one]",> 50%
9,"O=c1[nH]cnc2c(CNCC3CCCCC3)nccc12 [Example 85, 8-(((cyclohexylmethyl)amino)methyl)pyrido[3,4-d]pyrimidin-4(3H)-one]",< 20%
10,"CN1CCN(C(=O)CNCc2nccc3c(=O)[nH]c(COc4ccc(F)c(Cl)c4)nc23)CC1 [Example 226, 2-((3-chloro-4-fluorophenoxy)methyl)-8-(((2-(4-methylpiperazin-1-yl)-2-oxoethyl)amino)methyl)pyrido[3,4-d]pyrimidin-4(3H)-one]",> 50%
11,"CN1CCC(CNCc2nccc3c(=O)[nH]c(COCc4ccccc4)nc23)C1 (stereo not drawn) [Example 205, 2-((benzyloxy)methyl)-8-((((1-methylpyrrolidin-3-yl)methyl)amino)methyl)pyrido[3,4-d]pyrimidin-4(3H)-one]",20 to 50%
12,"O=c1[nH]c(COc2cc(C(F)(F)F)ccc2Cl)nc2c(CNCC3CCNCC3)nccc12 [Example 112, 2-((2-chloro-5-(trifluoromethyl)phenoxy)methyl)-8-(((piperidin-4-ylmethyl)amino)methyl)pyrido[3,4-d]pyrimidin-4(3H)-one]",20 to 50%
13,"O=c1[nH]c(COc2cccc(Cl)c2)nc2c(CNCC3CCNCC3)nccc12 [Example 132, 2-((3-chlorophenoxy)methyl)-8-(((piperidin-4-ylmethyl)amino)methyl)pyrido[3,4-d]pyrimidin-4(3H)-one]",> 50%
14,"O=c1[nH]c(COc2cccc(Cl)c2Cl)nc2c(CNCC3CCNCC3)nccc12 [Example 113, 2-((2,3-dichlorophenoxy)methyl)-8-(((piperidin-4-ylmethyl)amino)methyl)pyrido[3,4-d]pyrimidin-4(3H)-one]",20 to 50%
15,"O=c1[nH]c(COc2ccc3c(c2)CCC3)nc2c(CNCC3CCNCC3)nccc12 [Example 139, 2-(((2,3-dihydro-1H-inden-5-yl)oxy)methyl)-8-(((piperidin-4-ylmethyl)amino)methyl)pyrido[3,4-d]pyrimidin-4(3H)-one]",20 to 50%

# Next, values leading:
row,inhibition at 0.1 µM,SMILES
1,> 50%,"O=c1[nH]c(COc2ccc(F)c(Cl)c2)nc2c(CNC[C@H]3CNCCO3)nccc12 [Example 190, (S)-2-((3-chloro-4-fluorophenoxy)methyl)-8-(((morpholin-2-ylmethyl)amino)methyl)pyrido[3,4-d]pyrimidin-4(3H)-one]"
2,20 to 50%,"CC(Oc1ccc(Cc2ccccc2)cc1)c1nc2c(CNCC3CCNCC3)nccc2c(=O)[nH]1 (stereo not drawn) [Example 212, 2-(1-(4-benzylphenoxy)ethyl)-8-(((piperidin-4-ylmethyl)amino)methyl)pyrido[3,4-d]pyrimidin-4(3H)-one]"
3,20 to 50%,"O=c1[nH]c(C2Cc3ccccc3O2)nc2c(CNCC3CCNCC3)nccc12 (stereo not drawn) [Example 197, 2-(2,3-dihydrobenzofuran-2-yl)-8-(((piperidin-4-ylmethyl)amino)methyl)pyrido[3,4-d]pyrimidin-4(3H)-one]"
4,20 to 50%,"O=c1[nH]c(COc2ccc(F)c(Cl)c2)nc2c(CNCc3ccco3)nccc12 [Example 171, 2-((3-chloro-4-fluorophenoxy)methyl)-8-(((furan-2-ylmethyl)amino)methyl)pyrido[3,4-d]pyrimidin-4(3H)-one]"
5,< 20%,"O=C(CC1CCNCC1)NCc1nccc2c(=O)[nH]c(COc3ccc(F)c(Cl)c3)nc12 [Example 240, N-((2-((3-chloro-4-fluorophenoxy)methyl)-4-oxo-3,4-dihydropyrido[3,4-d]pyrimidin-8-yl)methyl)-2-(piperidin-4-yl)acetamide]"
6,> 50%,"O=c1[nH]c(COCc2cccc(Cl)c2)nc2c(CNC[C@H]3CCNC3)nccc12 [Example 208, (S)-2-(((3-chlorobenzyl)oxy)methyl)-8-(((pyrrolidin-3-ylmethyl)amino)methyl)pyrido[3,4-d]pyrimidin-4(3H)-one]"
7,< 20%,"CN1CCC(CNCc2nccc3c(=O)[nH]c(C4CCCC4)nc23)CC1 [Example 192, 2-cyclopentyl-8-((((1-methylpiperidin-4-yl)methyl)amino)methyl)pyrido[3,4-d]pyrimidin-4(3H)-one]"
8,20 to 50%,"O=C(NCCC1CCNCC1)c1cc(OCc2nc3cnccc3c(=O)[nH]2)ccc1Cl [Example 46, 2-chloro-5-((4-oxo-3,4-dihydropyrido[3,4-d]pyrimidin-2-yl)methoxy)-N-(2-(piperidin-4-yl)ethyl)benzamide]"
9,20 to 50%,"O=c1[nH]c(COCc2ccccc2)nc2c(CNC[C@H]3CCNC3)nccc12 [Example 204, (S)-2-((benzyloxy)methyl)-8-(((pyrrolidin-3-ylmethyl)amino)methyl)pyrido[3,4-d]pyrimidin-4(3H)-one]"
10,20 to 50%,"O=c1[nH]cnc2c(CNCC3CCN(Cc4ccccc4)CC3)nccc12 [Example 96, 8-((((1-benzylpiperidin-4-yl)methyl)amino)methyl)pyrido[3,4-d]pyrimidin-4(3H)-one]"
11,20 to 50%,"O=c1[nH]c(COc2ccccc2Cl)nc2c(CNCC3CCNCC3)nccc12 [Example 122, 2-((2-chlorophenoxy)methyl)-8-(((piperidin-4-ylmethyl)amino)methyl)pyrido[3,4-d]pyrimidin-4(3H)-one]"
12,< 20%,"O=C(NCc1nccc2c(=O)[nH]c(COc3ccc(F)c(Cl)c3)nc12)C1CCCNC1 (stereo not drawn) [Example 241, N-((2-((3-chloro-4-fluorophenoxy)methyl)-4-oxo-3,4-dihydropyrido[3,4-d]pyrimidin-8-yl)methyl)piperidine-3-carboxamide]"
13,> 50%,"COCCN1CCC(CNCc2nccc3c(=O)[nH]c(COc4ccc(F)c(Cl)c4)nc23)CC1 [Example 189, 2-((3-chloro-4-fluorophenoxy)methyl)-8-((((1-(2-methoxyethyl)piperidin-4-yl)methyl)amino)methyl)pyrido[3,4-d]pyrimidin-4(3H)-one]"
14,< 20%,"O=C(NCCN1CCOCC1)c1cccc(OCc2nc3cnccc3c(=O)[nH]2)c1 [Example 40, N-(2-morpholinoethyl)-3-((4-oxo-3,4-dihydropyrido[3,4-d]pyrimidin-2-yl)methoxy)benzamide]"
15,< 20%,"O=c1[nH]c(COc2ccc(F)c(Cl)c2)nc2c(CNCC3CCCOC3)nccc12 (stereo not drawn) [Example 162, 2-((3-chloro-4-fluorophenoxy)methyl)-8-((((tetrahydro-2H-pyran-3-yl)methyl)amino)methyl)pyrido[3,4-d]pyrimidin-4(3H)-one]"
16,20 to 50%,"O=c1[nH]cnc2c(CNC[C@H]3CCCNC3)nccc12 [Example 99, (S)-8-(((piperidin-3-ylmethyl)amino)methyl)pyrido[3,4-d]pyrimidin-4(3H)-one]"
17,20 to 50%,"CN1CCC(N2CCC(CNCc3nccc4c(=O)[nH]cnc34)CC2)CC1 [Example 97, 8-((((1′-methyl-[1,4′-bipiperidin]-4-yl)methyl)amino)methyl)pyrido[3,4-d]pyrimidin-4(3H)-one]"
18,> 50%,"O=c1[nH]c(COc2ccc(F)c(Cl)c2)nc2c(CNC[C@@H]3CNCCO3)nccc12 [Example 187, (R)-2-((3-chloro-4-fluorophenoxy)methyl)-8-(((morpholin-2-ylmethyl)amino)methyl)pyrido[3,4-d]pyrimidin-4(3H)-one]"
